{
  "source": "paper PMC6100113",
  "about": "“Involvement of CYP4F2 in the Metabolism of a Novel Monophosphate Ester Prodrug of Gemcitabine and Its Interaction Potential In Vitro” (Molecules : A Journal of Synthetic Chemistry and Natural …, 2018)",
  "key": {"[1]": {"experiment": "Metabolite identification by UPLC/Triple TOF MS in human intestinal microsomes", "type": "in vitro ADME", "set-up": "key: √: metabolites were detected by high-resolution mass spectrometry", "conditions": "Compound-3 10 μM, NADPH, 60 min, HRMS", "protocol": "(§1) For metabolite identification, a higher concentration of Compound-3 (10 μM) was incubated with liver microsomes (1 mg/mL) in the presence of NADPH (1 mM) and primary human hepatocytes at a density of 1 × 10^6 cell/mL. Samples were collected at 0 min and 60 min with the addition of ice-cold acetonitrile. After vortexing and centrifugation, the supernatant was transferred into a new tube and evaporated to dryness. The samples were then reconstituted in 100 μL of water and methanol (v/v, 9:1). An aliquot of 10 μL of reconstituted solution was injected into UPLC/Triple TOF 5600^+ MS for metabolite identification.\n(§2) Identification of Compound-3 metabolites was carried out using Acquity UPLC/Triple TOF 5600^+ system. Chromatographic separation for Compound-3 and its metabolites were achieved by an Acquity UPLC HSS T3 column (100 × 2.1 mm i.d., […]; Waters Corp.) maintained at 40 °C. The mobile phase was a mixture of 0.02% formic acid in 5 mM ammonium acetate (A) and methanol (B). The gradient elution was started from 2% B and maintained for 4 min, then increased linearly to 75% B over the next 4 min and maintained for 8 min. […] The flow rate was 0.4 mL/min and the eluent was monitored by UV detection at 280 nm.\n(§3) For mass detection, a Triple TOF 5600^+ mass spectrometer (AB Sciex, Framingham, MA, USA) was operated in positive ion electrospray (ES-positive) mode with the source temperature at 500 °C and scan range from m/z 100 to 1000 Da. Other parameters were set as follows: ion spray voltage, 5500 V; decluttering potential, 80 V; curtain gas, 40 psi; ion source gas 1, 55 psi; and ion source gas 2, 50 psi. Collision energies of 25 and 65 eV were used for TOF MS and product ion scans, respectively, and a collision energy spread of 20 was used in the MS/MS analysis. Information-dependent acquisition (IDA), together with real-time multiple mass defect filter, was used to trigger acquisition of MS/MS spectra."}, "[2]": {"experiment": "Metabolic stability in human intestinal microsomes", "type": "in vitro ADME", "conditions": "human intestinal microsomes 0.2 mg/mL, with NADPH, 1 μM, 37 °C", "protocol": "(§4) Stability of Compound-3 was first investigated in microsomal systems from human and rat. The microsomal protein and Compound-3 concentrations were optimized to 0.2 mg/mL and 1 µM, respectively. Before the start of the incubation, reaction mixtures containing phosphate buffer (100 mM, pH 7.4), microsomes and Compound-3 in a total volume of 50 µL were warmed up at 37 °C for 10 min. The reaction was started with the addition of NADPH at a final concentration of 1 mM. Incubations were terminated at a specified time with the addition of 100 µL ice-cold acetonitrile containing the internal standard. The samples were then centrifuged, and aliquots of 10 µL of the supernatants were transferred into liquid chromatography-tandem mass spectrometry (LC-MS/MS) for the analysis of Compound-3 levels."}, "CYP4F2": {"molecular_target": "T1, CYP4F2 (Homo sapiens, UniProt P78329)", "T1 construct": "purchased Corning Gentest", "T1 sequence (P78329 5-520)": "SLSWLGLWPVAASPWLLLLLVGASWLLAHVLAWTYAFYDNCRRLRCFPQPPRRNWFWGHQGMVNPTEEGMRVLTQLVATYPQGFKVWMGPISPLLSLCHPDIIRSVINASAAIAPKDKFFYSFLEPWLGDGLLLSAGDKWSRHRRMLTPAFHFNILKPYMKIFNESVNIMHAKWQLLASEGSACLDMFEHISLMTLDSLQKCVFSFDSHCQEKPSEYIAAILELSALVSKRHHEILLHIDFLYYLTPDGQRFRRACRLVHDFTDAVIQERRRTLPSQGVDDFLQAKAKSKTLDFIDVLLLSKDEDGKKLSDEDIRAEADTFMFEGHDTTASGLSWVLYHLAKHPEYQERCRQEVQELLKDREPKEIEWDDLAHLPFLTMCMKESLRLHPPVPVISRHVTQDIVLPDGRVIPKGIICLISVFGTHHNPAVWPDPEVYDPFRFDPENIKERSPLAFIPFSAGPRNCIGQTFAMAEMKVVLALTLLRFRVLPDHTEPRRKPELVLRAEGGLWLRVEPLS", "experiment": "Reaction phenotyping with recombinant CYP4F2", "type": "in vitro ADME", "conditions": "recombinant CYP4F2 50 nM, 1 μM, NADPH, after 30 min incubation", "protocol": "Compound-3 was incubated separately with human cDNA-expressed cytochrome P450s (CYP1A2, CYP2B6, CYP2C8, CYP2C9, CYP2C19, CYP2D6, CYP3A4, CYP4A11, CYP4F2 and CYP4F3). The incubation mixtures contained individual CYP isoenzymes (50 nM), potassium phosphate buffer (100 mM, pH 7.4), NADPH (1 mM), and Compound-3 (1 µM). The final volume of the incubation mixture was 50 µL. Before the start of the incubation, reaction mixtures were warmed up at 37 °C for 10 min. The reaction was initiated with the addition of NADPH and the incubations were performed at 37 °C in a water bath. […] Control samples without NADPH but substrates were included. The samples were then centrifuged and aliquots of 10 μL of the supernatants were transferred onto LC-MS/MS for the analysis of Compound-3 and M4 (carboxylic acid) levels.\nThe following are available online. Figure S1. Gemcitabine Formation from Compound-3 Hydrolysis as a function of alkaline phosphatase protein concentrations. Compound-3 (1 μM) was incubated with alkaline phosphatase concentrations ranging from 0.01–0.2 mg/mL at 37 °C (n = 3). Figure S2. Metabolites of Compound-3 in human recombinant CYP4F2. Compound-3 (1 μM) was incubated with human recombinant CYP4F2 (50 nM) in the presence of NADPH at 37 °C (n = 3)."}, "[3]": {"experiment": "Metabolite identification by UPLC/Triple TOF MS in human hepatocytes", "type": "in vitro ADME", "set-up": "key: √: metabolites were detected by high-resolution mass spectrometry", "conditions": "Compound-3 10 μM, 1 × 10^6 cell/mL, 60 min, HRMS", "protocol": "as §1, §2, §3"}, "[4]": {"experiment": "Metabolic stability in rat intestinal microsomes", "type": "in vitro ADME", "conditions": "rat intestinal microsomes 0.2 mg/mL, with NADPH, 1 μM, 37 °C", "protocol": "as §4"}, "[5]": {"test_system": "H460 tumor xenograft (non-small cell lung cancer)", "conditions": "cited from earlier work"}, "[6]": {"test_system": "human equilibrative transporter 1 (hENT1)", "conditions": "cited from earlier work"}, "[7]": {"experiment": "Metabolic stability in human liver microsomes", "type": "in vitro ADME", "conditions": "1 μM", "protocol": "as §4"}},
  "data": [
    {"smiles": "CCCCCCCCCCCCCCCCCCOCCOP(=O)(O)OCC1OC(n2ccc(N)nc2=O)C(F)(F)C1O", "note": "(stereo not drawn) [Compound-3]", "values": [
      {"measurement": "detected in matrix HIM", "setting": "[1]", "result": "√"},
      {"measurement": "disappearance after 60 min incubation", "setting": "[2]", "result": "> 50", "unit": "%"},
      {"measurement": "disappearance of Compound-3 in the presence of CYP isozyme", "setting": "CYP4F2", "result": "barely detectable"},
      {"measurement": "detected in matrix Human Hepatocytes", "setting": "[3]", "result": "√"},
      {"measurement": "disappearance in 60 min", "setting": "[4]", "result": "~ 20%"},
      {"measurement": "oral activity in tumor xenograft model", "setting": "[5]", "result": "orally active"},
      {"measurement": "cellular uptake limitation by hENT1", "setting": "[6]", "result": "low propensity to be limited"},
      {"measurement": "stability in microsomes in the absence of NADPH", "setting": "[7]; human and rat liver and intestinal microsomes, absence of NADPH", "result": "relatively stable"},
      {"measurement": "disappearance after 60 min incubation", "setting": "[7]; human liver microsomes 0.2 mg/mL, with NADPH, 37 °C, 60 min", "result": "more than 70%"}
    ]}
  ]
}
